Test results taken from patent US12678414B2, “Compositions for treatment of fungal nail infections” (Blueberry Therapeutics Limited, priority 2016, dated 2026).
Entries after “also recorded” stand apart in the source; their conditions may differ. Structures can show the parent of a compound that is named as a salt. Where two headings read alike, the source gives them in different places.

What was measured:
T. mentagrophytes = assay: Trychophyton mentagrophytes anti-fungal paper disc lawn assay; type: cell-based
Protocol: A single colony of T. mentagrophytes was picked from a stock plate and grown for 48 hours in 5 mls of YEPD (yeast extract, peptone, dextrose) medium at 30° C. A sterile swab was dipped into the resulting culture and then used to spread a lawn of T. mentagrophytes onto a YEPD agar plate supplemented with chloramphenicol (50 ug/ml). […] A 10 mm sterile paper disc was soaked in test solution, the excess liquid removed and the disc placed onto the T. mentagrophytes lawn. Plates were inverted and incubated at 30° C. for 5 days. The first experiment performed was to establish the approximate MIC (minimum inhibitor concentration) for terbinafine against T. mentagrophytes in a paper disc assay. […] After 5 days of incubation, zones of clearance were observed around the discs with concentrations of terbinafine having anti-fungal activity against this species (as shown in FIG. 10). […] The reported figures were certainly derived from a liquid MIC assay, which is known to be more sensitive, and so this paper disc assay represented a substantially more stringent test of drug efficacy. This assay was also used to address the question of whether terbinafine passing through the nail in BB0305 treated samples still retained its antifungal efficacy.

[1] = Nanoparticle analysis on Nanosight LM10; type: physicochemical
Protocol: Nanoparticle formation was routinely confirmed on a Nanosight LM10 instrument (Malvern Instruments). Additional nanoparticle analyses were carried out using a Zetasizer (Malvern Instruments). […] Initial analysis used a Nanosight LM10 nanosizer (Malvern Instruments) to detect nanoparticles in solution. […] The LM10 uses direct visualisation of the particles through a microscope where particles are tracked by a video camera and their sizes calculated using the Einstein-Stokes equation, which relates particle velocity in a solution to their diameter. This video capture also allows for a qualitative assessment of different formulations during their analysis. However, this instrument has a lower cut-off range of approximately 20 nm diameter for analysis.

Microsporum canis = settings: 49 strains tested; cited from earlier work
Trichophyton terestre = settings: 1 strain tested; cited from earlier work
Trichophyton species = settings: 27 strains tested; cited from earlier work
onychomycosis [2] = settings: topical terbinafine; hydrochloride; cited from earlier work
Epidermophyton floccosum = settings: 42 strains tested; cited from earlier work
[3] = system: Trichophyton mentagrophytes; settings: cited from earlier work
[4] = system: Trichophyton interdigitale; settings: 11 strains tested; cited from earlier work
[5] = type: in vitro ADME; settings: human, 7 days
Protocol: Nail clippings were soaked in water overnight at 30° C. and dried briefly. A 3 mm diameter punch was used to take disc biopsies of the nail clippings. Each nail disc was added to a Franz cell and an upper chamber of the cell attached. 40 μl of the following formulations was added to the upper chambers: 0.3 mg/ml PHMB+0.1 mg/ml terbinafine; or 10 mg/ml terbinafine. Lower collection chambers of the Franz cells were filled with water (approximately 600 μl) and the hole in the base of the sample chamber also filled with ddH2O to prevent bubbles forming beneath the nail. The upper sample chamber was carefully placed into the collection chamber ensuring not to introduce any air bubbles. Excess liquid from the collection chamber was expelled at this point leaving a final volume of liquid in the lower chamber of 500 μl. […]
The nail discs from the Franz cell were also analysed for the presence of terbinafine as follows: the remaining test sample was removed from the upper sample chamber and discarded and the sample chamber washed 5 times with 100 μl ddH2O, with each wash being discarded, in order to remove any residual test solution remaining in the sample chamber. […]
The cells were then incubated at 32° C. for 7 days. […] After 7 days, samples from the underside of the nail (ethanol washes) were collected and analysed by LC-MS/MS. […] Levels of terbinafine were quantified against drug standards. […]

Microsporum species = settings: 25 strains tested; cited from earlier work
Trichophyton rubrum = settings: 72 strains tested; cited from earlier work
onychomycosis [6] = settings: oral, following 3-6 months of dosing; cited from earlier work
Trichophyton verrucosum = settings: 17 strains tested; cited from earlier work
[7] = oral dosing, cited from earlier work

paper disc MIC relative to previously reported MIC (T. mentagrophytes; 0.6 μg/ml versus 6 ng/ml): > 100 ×
MIC (T. mentagrophytes; Trichophyton mentagrophytes, 120 h, paper disc assay, 5 days incubation, approximate, read-out: MIC (minimum inhibitor concentration)): 600 ng/mL
number of particles/ml of solution ([1]; 0.1 mg/ml terbinafine in 30% (v/v) ethanol): < 5e+07 mL⁻¹
particle size range (diameter) ([1]; 0.1 mg/ml terbinafine, 30% ethanol): 50-800 nm
particle number ([1]; 30% ethanol, room temperature at least 24 hours, 0.1 mg/ml terbinafine): 0.5×10^8 particles/ml
median concentration of drug in dissolved nails [5]: approximately 0.5 mg/g
terbinafine passing through the nail (ethanol washes of underside) ([5]; 0.1 mg/ml): < 0.1 ng/mL
Compound: CN(C/C=C/C#CC(C)(C)C)Cc1cccc2ccccc12 [terbinafine, terbinafine hydrochloride]
antifungal activity (zone of clearance) of sample that passed through nail (T. mentagrophytes; aqueous phase of Franz cell collection chamber after 7 days treatment of healthy human nail, 30° C., 5 days): no effect
MIC range (Microsporum canis): 6 to 80 ng/mL
MIC range (Trichophyton terestre): 2 ng/mL
MIC range (Trichophyton species): ≤60 ng/mL
efficacy in the treatment of onychomycosis (onychomycosis [2]): failed to show efficacy; also recorded: failed to demonstrate any significant efficacy
MIC range (Epidermophyton floccosum): 1 to 47 ng/mL
MIC range ([3]; 32 strains tested): 1 to 6 ng/mL
previously reported MIC ([3]; liquid MIC assay, with reference to Table 1): 6 ng/mL
MIC range [4]: 2 to 28 ng/mL
MIC range (Microsporum species): 2 to 70 ng/mL
MIC range (Trichophyton rubrum): 1 to 38 ng/mL
cure (onychomycosis [6]): > 80%
MIC range (Trichophyton verrucosum): 1 to 6 ng/mL
terbinafine concentration in nails ([7]; after 3 weeks): about 0.25 μg/g
terbinafine concentration in nails ([7]; after 18 months): 0.55 µg/g
terbinafine concentration in nails ([7]; after 7 days treatment): 0.1 µg/g
